Laboratory results as given in US20120039954A1, “METHOD OF TREATING INSOMNIA” (SOMNUS THERAPEUTICS, INC., priority 2008, published 2012).

Test: Drug plasma levels in the Example 9 trial
Details: 10 mg single oral dose
Description: Non-elderly adults were enrolled in a cross-over, double-blind trial. […] Drug plasma levels were obtained at the same times.

## CCN(C(C)=O)c1cccc(-c2ccnc3c(C#N)cnn23)c1 [zaleplon, N-[3-(3-cyanopyrazole[1,5-a]pyrimidin-7-yl)phenyl]-N-ethylacetamide]
  Time post-dose at which drug plasma levels peaked: 1.5 h
